Assay results taken from patent US11414424B2, “Cardiac sarcomere inhibitors” (Cytokinetics, Inc., priority 2018, dated 2022).

What follows are compounds tested on bovine cardiac myofibrils (assay: Myofibril assay: PK/LDH-coupled steady-state ATPase activity of skinned bovine cardiac myofibrils). Settings: Ca2+ activating to 75% of maximal rate.
Assay type: biochemical
How it was run: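 Steady-state ATPase of detergent-skinned bovine left-ventricular myofibrils (1 mg/mL), PK/LDH-coupled NADH read at 340 nm, in PIPES/MgCl2 buffer pH 6.8 with 50 μM ATP, 0.6 mM EGTA and CaCl2 set for 50% or 75% activation. Inhibition of activity measured.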

| SMILES | CDMF75 IC15 |
| --- | --- |
| CC(C)N1CC(=O)N(Cc2ccc(Cl)cc2)C2(CN(c3ccnc(O)c3)C2)C1=O [Compound 28, 5-(4-chlorobenzyl)-2-(2-hydroxypyridin-4-yl)-8-isopropyl-2,5,8-triazaspiro[3.5]nonane-6,9-dione] | 3.1 µM |
| COc1ccc(C2C(=O)N(C(C)C)CC(=O)N2Cc2ccc(Cl)cc2)cc1 (stereo not drawn) [Compound 313, 4-(4-chlorobenzyl)-1-isopropyl-3-(4-methoxy-phenyl)piperazine-2,5-dione] | 3.9 µM |
| O=C1C(C2COC2)N(Cc2ccc(Cl)cc2)C(=O)CN1c1ncc(Br)cc1F (stereo not drawn) [Compound 708, 1-(5-bromo-3-fluoropyridin-2-yl)-4-(4-chlorobenzyl)-3-(oxetan-3-yl)piperazine-2,5-dione] | 1.4 µM |
| COc1cnc(N2CC(=O)N(Cc3ccc(C(F)(F)F)cc3)C(C3COC3)C2=O)c(F)c1 (racemic) [Compound 703, 1-(3-fluoro-5-methoxypyridin-2-yl)-3-(oxetan-3-yl)-4-(4-(trifluoromethyl)benzyl)piperazine-2,5-dione] | 10.1 µM |
| CNC(=O)N1CC2(C1)C(=O)N(C(C)c1ccc(C#N)cc1)CC(=O)N2Cc1ccc(C(F)(F)F)cc1 (stereo not drawn) [Compound 338, 8-(1-(4-cyanophenyl)ethyl)-N-methyl-6,9-dioxo-5-(4-(trifluoromethyl)benzyl)-2,5,8-triazaspiro[3.5]nonane-2-carboxamide] | 1.51 µM |
| CC(C)N1CC(=O)N(Cc2ccc(C(F)(F)F)cc2)C2(CCc3ccccc32)C1=O (stereo not drawn) [Compound 319, 4′-isopropyl-1′-(4-(trifluoromethyl)benzyl)-2,3-dihydrospiro[indene-1,2′-piperazine]-3′,6′-dione] | 24.0 µM |
| Cc1noc([C@H]2C[C@]3(C2)C(=O)N(c2ccc(C#N)cc2F)CC(=O)N3Cc2ccc(C(F)(F)F)cc2)n1 [Compound 432B] | 0.5 µM |
| N#Cc1ccc(N2CC(=O)N(Cc3ccc(C(F)(F)F)cc3)C3(COC3)C2=O)c(F)c1 [Compound 280, 4-(6,9-dioxo-5-(4-(trifluoromethyl)benzyl)-2-oxa-5,8-diazaspiro[3.5]-nonan-8-yl)-3-fluorobenzonitrile] | 0.9 µM |
| C[C@H]1C(=O)N(c2ccc(Cl)cc2F)CC(=O)N1Cc1ccc(C(F)(F)F)cc1 [Compound 276, (S)-1-(4-chloro-2-fluoro-phenyl)-3-methyl-4-(4-(trifluoromethyl)benzyl)-piperazine-2,5-dione] | 3.0 µM |
| CC(=O)NCC1(C)C(=O)N(c2ncc(Cl)cc2F)CC(=O)N1Cc1ccc(C(F)(F)F)cc1 (single isomer, unassigned) [Compound 630B, N-((4-(5-chloro-3-fluoropyridin-2-yl)-2-methyl-3,6-dioxo-1-(4-(trifluoromethyl)benzyl)piperazin-2-yl)methyl)acetamide] | >39 µM |
| CNC(=O)N1CC2(C1)C(=O)N(c1ncc(Cl)cc1F)CC(=O)N2[C@@H](C)c1ccc(C(F)(F)F)cc1 [Compound 592, (S)-8-(5-chloro-3-fluoro-pyridin-2-yl)-N-methyl-6,9-dioxo-5-(1-(4-(trifluoromethyl)phenyl)-ethyl)-2,5,8-triazaspiro-[3.5]nonane-2-carboxamide] | 1.3 µM |
| CNC(=O)N1CC2(C1)C(=O)N(c1ccc(C#N)c(F)c1)CC(=O)N2Cc1ccc(C(F)(F)F)cc1 [Compound 162, 8-(4-cyano-3-fluorophenyl)-N-methyl-6,9-dioxo-5-(4-(trifluoromethyl)benzyl)-2,5,8-triazaspiro[3.5]-nonane-2-carboxamide] | 0.4 µM |
| CC(=O)N1CC(C2C(=O)N(c3ncc(Cl)cc3F)CC(=O)N2Cc2ccc(Cl)cc2)C1 (stereo not drawn) [Compound 644, 3-(1-acetylazetidin-3-yl)-1-(5-chloro-3-fluoropyridin-2-yl)-4-(4-chlorobenzyl)-piperazine-2,5-dione] | 6.8 µM |
| N#Cc1ccc(N2CC(=O)N(Cc3ccc(C(F)(F)F)cc3)C3(CCN(C=O)C3)C2=O)c(F)c1 (stereo in doubt) [Compound 222, (S)-3-fluoro-4-(2-formyl-7,10-dioxo-6-(4-(trifluoromethyl)benzyl)-2,6,9-triazaspiro[4.5]decan-9-yl)benzonitrile] | 0.7 µM |
| O=C1CN([C@@H]2CCOC2)C(=O)C2(CCN(c3ccccn3)C2)N1Cc1ccc(Cl)cc1 (stereo partly drawn) [Compound 93, 6-(4-chlorobenzyl)-2-(pyridin-2-yl)-9-((R)-tetrahydrofuran-3-yl)-2,6,9-triazaspiro-[4.5]decane-7,10-dione] | 19.7 µM |
| O=C1C(C23CC(O)(C2)C3)N(Cc2ccc(F)cc2)C(=O)CN1c1ncc(Cl)cc1F (stereo not drawn) [Compound 844, 1-(5-chloro-3-fluoropyridin-2-yl)-4-(4-fluorobenzyl)-3-(3-hydroxybicyclo[1.1.1]-pentan-1-yl)piperazine-2,5-dione] | 8.6 µM |

| SMILES | CDMF75 IC15 |
| --- | --- |
| C[C@@H]1C(=O)N(c2ccc(Cl)cc2F)CC(=O)N1Cc1ccc(C(F)(F)F)cc1 [Compound 275, (R)-1-(4-chloro-2-fluoro-phenyl)-3-methyl-4-(4-(trifluoromethyl)benzyl)-piperazine-2,5-dione] | 6.0 µM |
| CNC(=O)[C@H]1C[C@]2(C1)C(=O)N(c1ccc(C#N)cc1F)CC(=O)N2Cc1ccc(C(F)(F)F)cc1 [Compound 486B] | 0.7 µM |
| C[C@@H](c1ccc(C(F)(F)F)cc1)N1C(=O)CN(c2ncc(Cl)cc2F)C(=O)C12CN(CC(F)F)C2 [Compound 593, (S)-8-(5-chloro-3-fluoro-pyridin-2-yl)-2-(2,2-difluoroethyl)-5-(l-(4-(trifluoromethyl)phenyl)-ethyl)-2,5,8-triazaspiro-[3.5]nonane-6,9-dione] | 2.3 µM |
| CCC1CCC(N2CC(=O)N(Cc3ccc(C(F)(F)F)cc3)C3(CN(C(C)=O)C3)C2=O)CC1 (stereo not drawn) [Compound 323, 2-acetyl-8-(4-ethylcyclo-hexyl)-5-(4-(trifluoro-methyl)benzyl)-2,5,8-triazaspiro[3.5]nonane-6,9-dione] | 6.4 µM |
| CC(C)N1CC(=O)N(Cc2ccc(Cl)cc2)C2(CCN(c3ccncn3)C2)C1=O (stereo not drawn) [Compound 71, 6-(4-chlorobenzyl)-9-isopropyl-2-(pyrimidin-4-yl)-2,6,9-triazaspiro-[4.5]decane-7,10-dione] | 4.8 µM |
| CNC(=O)N1CCC2(C1)C(=O)N(c1ccc([N+](=O)[O-])cc1)CC(=O)N2Cc1ccc(Cl)cc1 (stereo not drawn) [Compound 349, 6-(4-chlorobenzyl)-N-methyl-9-(4-nitrophenyl)-7,10-dioxo-2,6,9-triazaspiro[4.5]decane-2-carboxamide] | 0.9 µM |
| O=C1C(C2CC(O)C2)N(Cc2ccc(C(F)(F)F)cc2)C(=O)CN1c1ncc(Cl)cc1F (single isomer, unassigned) [Compound 740A, 1-(5-chloro-3-fluoropyridin-2-yl)-3-(3-hydroxycyclobutyl)-4-(4-(trifluoromethyl)benzyl)piperazine-2,5-dione] | 1.1 µM |
| CNC(=O)N1CC2(C1)C(=O)N(c1ccc3oc(=O)ccc3c1)CC(=O)N2Cc1ccc(C2(C(F)(F)F)N=N2)cc1 [Compound 181, N-methyl-6,9-dioxo-8-(2-oxo-2H-chromen-6-yl)-5-(4-(3-(trifluoromethyl)-3H-diazirin-3-yl)benzyl)-2,5,8-triazaspiro[3.5]-nonane-2-carboxamide] | 6.2 µM |
| Cc1ccccc1CN1C(=O)CN(C(C)C)C(=O)C1c1ccc(Cl)cc1 (stereo not drawn) [Compound 300, 3-(4-chlorophenyl)-1-isopropyl-4-(2-methylbenzyl)piperazine-2,5-dione] | 28.3 µM |
| CC(C)CN1CC(=O)N(Cc2ccc(Cl)cc2)C2(CCN(c3ccccn3)C2)C1=O (stereo not drawn) [Compound 84, 6-(4-chlorobenzyl)-9-isobutyl-2-(pyridin-2-yl)-2,6,9-triazaspiro[4.5]-decane-7,10-dione] | 4.0 µM |
| CC(C)N1CC(=O)N(Cc2ccc(Cl)cc2)C2(CN(c3nc4c(s3)COCC4)C2)C1=O [Compound 47, 5-(4-chlorobenzyl)-2-(6,7-dihydro-4H-pyrano[4,3-d]thiazol-2-yl)-8-isopropyl-2,5,8-triazaspiro[3.5]-nonane-6,9-dione] | 3.7 µM |
| N#Cc1ccc(N2CC(=O)N(Cc3ccc(C(F)(F)F)cc3)[C@@H](CO)C2=O)c(F)c1 [Compound 287, (S)-3-fluoro-4-(3-(hydroxymethyl)-2,5-dioxo-4-(4-(trifluoromethyl)-benzyl)piperazin-1-yl)-benzonitrile] | 3.2 µM |
| O=C1CN(c2ccc(Cl)cc2F)C(=O)C2(CC2)N1Cc1ccc(C(F)(F)F)cc1 [Compound 271, 7-(4-chloro-2-fluorophenyl)-4-(4-(trifluoromethyl)-benzyl)-4,7-diazaspiro-[2.5]octane-5,8-dione] | 0.6 µM |
| N#Cc1ccc(N2CC(=O)N(Cc3ccc(C(F)(F)F)cc3)C3(CN(CC(F)F)C3)C2=O)cc1F [Compound 193, 4-(2-(2,2-difluoroethyl)-6,9-dioxo-5-(4-(trifluoromethyl)benzyl)-2,5,8-triazaspiro[3.5]nonan-8-yl)-2-fluorobenzonitrile] | 1.7 µM |
| O=C1[C@H](C2CC2)N(Cc2ccc(C(F)(F)F)cc2)C(=O)CN1c1ncc(Cl)cc1F [Compound 750, (S)-1-(5-chloro-3-fluoropyridin-2-yl)-3-cyclopropyl-4-(4-(trifluoromethyl)benzyl)piperazine-2,5-dione] | 1.0 µM |
| CCc1ccc(CN2C(=O)CN(c3ncc(Cl)cc3F)C(=O)C2C2COC2)cc1 (stereo not drawn) [Compound 665, 1-(5-chloro-3-fluoropyridin-2-yl)-4-(4-ethylbenzyl)-3-(oxetan-3-yl)piperazine-2,5-dione] | 7.3 µM |

Same assay, conditions: Ca2+ activating to 75% of maximal rate, listed as 838B

| SMILES | CDMF75 IC15 |
| --- | --- |
| O=C1C(C23CC(O)(C2)C3)N(Cc2ccc(C(F)(F)F)cc2)C(=O)CN1c1ncc(Cl)cc1F (single isomer, unassigned) [Enantiomer 838B, 1-(5-chloro-3-fluoropyridin-2-yl)-3-(3-hydroxybicyclo[1.1.1]pentan-1-yl)-4-(4-(trifluoromethyl)benzyl)piperazine-2,5-dione] | >39 µM |
